From article PMC8869728 (Biomedicines, 2022)
Like-named read-outs stand apart in the source and are kept apart here.

Experiments:
AChE [1] = target: T1, AChE (Mus musculus, UniProt P21836); assay type: in vivo; conditions: vitisin A or B 40 mg/kg oral; donepezil 5 mg/kg; scopolamine-treated mice
T1 construct: The isolated whole brain tissue was weighted, and powdered in liquid nitrogen using a mortar and pestle; from tissue; host or cells: whole brain of ICR mice (PBS extract, supernatant)
T1 sequence (P21836 32-614): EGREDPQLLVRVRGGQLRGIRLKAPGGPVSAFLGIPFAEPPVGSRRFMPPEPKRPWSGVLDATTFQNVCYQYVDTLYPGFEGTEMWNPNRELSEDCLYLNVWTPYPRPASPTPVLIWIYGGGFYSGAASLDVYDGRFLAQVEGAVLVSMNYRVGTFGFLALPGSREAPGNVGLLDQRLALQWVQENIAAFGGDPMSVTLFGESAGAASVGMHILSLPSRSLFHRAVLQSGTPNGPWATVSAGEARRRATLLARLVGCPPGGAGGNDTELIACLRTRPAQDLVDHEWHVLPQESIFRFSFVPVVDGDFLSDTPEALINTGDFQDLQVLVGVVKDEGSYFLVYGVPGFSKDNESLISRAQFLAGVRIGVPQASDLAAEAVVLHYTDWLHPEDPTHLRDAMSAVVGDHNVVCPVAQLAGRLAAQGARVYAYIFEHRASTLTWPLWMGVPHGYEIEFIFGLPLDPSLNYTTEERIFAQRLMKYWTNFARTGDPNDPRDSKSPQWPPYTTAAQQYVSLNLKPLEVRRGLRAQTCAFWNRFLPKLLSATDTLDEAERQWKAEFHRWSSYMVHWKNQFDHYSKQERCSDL
Experimental: (§1) The isolated whole brain tissue was weighted, and powdered in liquid nitrogen using a mortar and pestle. The proteins in the tissue powders were suspended and extracted by 1 mL, one-fold-diluted PBS. […] The protein contents in tissue extracts were determined by the BCA^TM protein assay kit (Thermo Fisher Scientific Inc.), and BSA was used to plot the standard curve. The AChE activity in the brain extracts was determined following the previous report. […] The malondialdehyde (MDA) levels in the brain extracts was determined using acidic TBA. The 320 μL of 0.5% TBA in 10% trichloroacetic acid was premixed with 80 μL of 5-fold diluted tissue extracts, and then heated at boiling water for 20 min, and then centrifuged at 10,000 rpm, 4 °C for 30 min. […] For determining protein expressions of BDNF and its receptor, TrkB, among brain extracts of the treated mice, the immune stains were performed onto polyvinylidene difluoride (PVDF) membranes (Millipore, Bedford, MA, USA). […] The western chemiluminescent HRP substrate kit (WBKL S0050, Millipore) was used to stain the target protein expressions, which the image system [Syngene GeneGnome5 imaging system (Cambridge, UK)] was used to quantify the image levels of target protein in the immune blots.

[2] = test system: scopolamine-treated amnesiac ICR mice; assay: Passive avoidance test in scopolamine-induced amnesiac ICR mice; conditions: scopolamine 1 mg/kg i.p.
Experimental: The 6-week-old male ICR mice were from the Laboratory Animal Center, College of Medicine, National Taiwan University (Taipei, Taiwan). The Prolab® RMH2500 normal diets (LabDiet Co., St. Louis, MO, USA) and water were free access during the animal experiments. After one week of acclimation, the VT-95EE or VT-95EE-EA pre-treatments were used to evaluate preventive functions as follows. […] At the first stage, the extract (VT-95EE and VT-95EE-EA)-administered group, ICR mice were treated from day 1 to day 11 by a single oral administration daily by gavage. […] Except for the blank, each mouse in all groups was intraperitoneally injected with scopolamine (1 mg/kg) 30 min after the oral administration. Each mouse in the blank group was injected with an equal volume of PBS instead of scopolamine. Each mouse received a learning and memory evaluation by a passive avoidance test 30 min after scopolamine injection at day 13 to day 14. All mice were sacrificed in the end of animal experiments at day 15, and the brain tissue of mouse in each group was isolated, weighted, and stored at −80°C for further uses.
The pre-treatment was used to evaluate preventive functions. […] At the first stage, the purified compound (vitisin A and vitisin B) administered group, ICR mice were treated from day 1 to day 9 by a single oral administration daily by gavage. […] Except for the blank, each mouse in all groups was intraperitoneally injected with scopolamine (1 mg/kg) 30 min after the oral administration. Each mouse in the blank group was injected with an equal volume of PBS instead of scoploamine. Each mouse received a learning and memory evaluation by a passive avoidance test 30 min after scopolamine injection at day 11 to day 12. All mice were sacrificed in the end of animal experiments at day 13, and the brain tissue of mice in each group was isolated, weighted, and stored at −80 °C for further uses.
The apparatus for passive avoidance test is a shuttle chamber composed of a bright box and a dark box; the dark box could be closed by a manual guillotine door (AccuScan Instruments Inc, Columbus, OH, USA). The dark box contained a wired metal floor, through which the electric foot shocks were automatically delivered in the acquisition trial. The first day was the acquisition trial, and the second day was the retention trial. For the acquisition trial, each mouse was placed around the shuttle chamber to acclimatize to the environment; 30 min later, each mouse was transferred to the bright box to record the time in the bright box (the step-through latency, s).

[3] = test system: brain-derived neurotrophic factor (BDNF); assay: BDNF protein expression in mouse brain tissue extracts (immune blot); assay type: in vivo; conditions: vitisin A or B 40 mg/kg oral; donepezil 5 mg/kg; scopolamine-treated mice
Experimental: as §1

[4] = test system: malondialdehyde (MDA) levels; assay: MDA levels in mouse brain tissue extracts (TBA); assay type: in vivo; conditions: vitisin A or B 40 mg/kg oral; donepezil 5 mg/kg; scopolamine-treated mice
Experimental: as §1

[5] = test system: C57BL/6 mice treated with high fat diets; parameters: method as in PMID 26448517; conditions: oral administration once a day at dose of 25 mg/kg with high fat diets; cited from earlier work
[6] = test system: endothelium-intact thoracic aortic rings of SD rats; parameters: method as in PMID 22762395; conditions: by increasing NO releases; cited from earlier work
recombinant human AChE = target: T2, recombinant human AChE (Homo sapiens, UniProt P22303); assay: biochemical; conditions: calculated from linear equation of three concentrations; read-out: IC50 of AChE inhibition
T2 construct: purchased R&D Systems Inc. (Minneapolis, MN)
Excerpt: The synthetic acetylthiocholine iodide was used as substrates for in vitro AChE activity assays. […] The released thiocholine was reacted with DTNB to generate yellowish 5-thio-2-nitrobenzoate. […] The AChE inhibitory activities (%) were as following: [(A405blank − A405sample)/(A405blank)] × 100%.

[7] = test system: tropomyosin receptor kinase B (TrkB); assay: TrkB protein expression in mouse brain tissue extracts (immune blot); assay type: in vivo; conditions: vitisin A or B 40 mg/kg oral; donepezil 5 mg/kg; scopolamine-treated mice
Experimental: as §1

SH-SY5Y cells = assay: Neuroprotective activities against MGO-induced SH-SY5Y cell deaths (SRB cell viability); assay type: cell-based, human; conditions: then 500 μM MGO 24 h
Experimental: The SH-SY5Y cells were cultured at 37 °C in the mixed medium of EMEM/F12 (1:1) and 10% FBS in the humidified atmosphere and 5% CO2. […] The treated SH-SY5Y cells were washed with PBS, and then the media without (the blank) or with 500 μM MGO (the control group and sample groups) were added for additional 24-h incubation at 37 °C. The cell viability was assayed by the SRB dyes as follows. The MGO-treated SH-SY5Y cells were washed twice with PBS, fixed by 10% trichloroacetic acid, and then stained with 0.2% SRB (dissolved in 1% acetic acid) for 30 min. The unbound dyes were removed by washing the stained cells with 1% acetic acid. The bound dyes in alive cells were extracted by 500 µL of 10 mM Tris-HCl buffer (pH 7.9). The absorbance at 540 nm was measured using an ELISA reader (TECAN, Männedorf, Switzerland).

[8] = test system: spontaneously hypertensive rats; parameters: method as in PMID 22762395; conditions: at the 8-h after a single oral dose of 10 mg/kg; cited from earlier work
recombinant human MAO-B = target: T3, recombinant human MAO-B (Homo sapiens, UniProt P27338); assay: MAO-B inhibitory activities in vitro (kynuramine fluorescence); assay type: biochemical; conditions: calculated from linear equation of three concentrations; read-out: IC50 of MAO-B inhibition
T3 construct: purchased Sigma Chemical Co. (St. Louis, MO, USA)
T3 sequence (P27338 1-520): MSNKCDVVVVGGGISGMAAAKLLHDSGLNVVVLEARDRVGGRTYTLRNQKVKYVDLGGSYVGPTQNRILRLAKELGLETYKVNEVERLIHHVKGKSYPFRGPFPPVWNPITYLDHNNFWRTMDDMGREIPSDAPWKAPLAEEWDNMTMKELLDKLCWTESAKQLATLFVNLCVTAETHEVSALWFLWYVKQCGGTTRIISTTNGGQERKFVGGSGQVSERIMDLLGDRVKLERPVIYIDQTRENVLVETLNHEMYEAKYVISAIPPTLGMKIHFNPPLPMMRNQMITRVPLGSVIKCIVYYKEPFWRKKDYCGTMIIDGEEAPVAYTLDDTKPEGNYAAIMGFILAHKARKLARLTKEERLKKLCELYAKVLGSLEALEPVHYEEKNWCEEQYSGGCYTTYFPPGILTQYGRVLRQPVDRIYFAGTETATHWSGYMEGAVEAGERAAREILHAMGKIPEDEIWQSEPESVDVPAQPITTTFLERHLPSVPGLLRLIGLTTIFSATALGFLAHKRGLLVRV
Experimental: The kynuramine was used as the MAO-B substrate to generate a fluorescent product, 4-hydroxyquinoline, which was used to screen MAO-B inhibitory activity assays. […] The MAO-B inhibition (%) was calculated as the following: [(Fblank − Fsample)/(Fblank)] × 100%. The IC50 of MAO-B activity was calculated from each linear equation from three used concentrations for MAO-B inhibitions.

AChE [9] = conditions: read-out: IC50 of AChE inhibitory activities; cited from earlier work
AChE [10] = test system: AChE; parameters: method as in PMID 32118214; conditions: read-out: IC50 of AChE inhibitory activity; cited from earlier work
[11] = compound study: vitisin A or vitisin B 40 mg/kg oral daily day 1-13, donepezil 5 mg/kg day 10-13
[12] = pretreatment 2.5, 5, 10, and 20 μM for 24 h

T2 sequence (P22303 32-614): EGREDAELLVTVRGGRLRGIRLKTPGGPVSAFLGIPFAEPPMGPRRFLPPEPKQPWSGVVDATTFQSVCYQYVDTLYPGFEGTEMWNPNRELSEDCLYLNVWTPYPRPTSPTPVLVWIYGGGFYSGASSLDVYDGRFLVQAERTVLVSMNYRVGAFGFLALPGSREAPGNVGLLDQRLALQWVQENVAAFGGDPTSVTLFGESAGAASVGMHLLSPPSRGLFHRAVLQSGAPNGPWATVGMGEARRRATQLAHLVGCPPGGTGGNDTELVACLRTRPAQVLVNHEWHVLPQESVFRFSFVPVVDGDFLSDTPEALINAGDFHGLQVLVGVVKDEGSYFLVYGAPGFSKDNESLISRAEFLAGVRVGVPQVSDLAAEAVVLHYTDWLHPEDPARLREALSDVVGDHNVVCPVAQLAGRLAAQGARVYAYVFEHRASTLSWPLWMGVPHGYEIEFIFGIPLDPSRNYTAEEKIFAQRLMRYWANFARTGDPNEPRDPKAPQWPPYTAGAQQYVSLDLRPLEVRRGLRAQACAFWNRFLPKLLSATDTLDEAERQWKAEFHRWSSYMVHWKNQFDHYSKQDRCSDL

Row | Compound | step-through latency in the retention trial compared to the control [2, 11] | IC50 (recombinant human AChE) [µM] | MGO-treated cell viability compared to the control (SH-SY5Y cells; [12]) | IC50 (recombinant human MAO-B) [µM] | IC50 (AChE [9]) [µM] | also measured
1 | Oc1ccc([C@H]2c3c(O)cc(O)cc3[C@H]3c4c(cc(O)cc4[C@@H]2c2cc(/C=C/c4cc(O)cc5c4[C@H](c4cc(O)cc(O)c4)[C@@H](c4ccc(O)cc4)O5)ccc2O)O[C@@H]3c2ccc(O)cc2)cc1 [vitisin A, (+)-vitisin A] | significant longer time | 1.29 | significantly to elevate MGO-treated cell viability | 4.94 | – | AChE activity in brain tissue extracts compared to the control (AChE [1]): lower increase in AChE and MDA levels; BDNF protein expression in brain tissue extracts [3]: recover both protein expressions of the reduced BDNF and TrkB; MDA levels in brain tissue extracts compared to the control [4]: lower increase in AChE and MDA levels; weight gains [5]: reduce weight gains; effect on phenylephrine-induced tension [6]: vasodilating effects; TrkB protein expression in brain tissue extracts [7]: recover both protein expressions of the reduced BDNF and TrkB; greatest reduction in diastolic blood pressure [8]: 25.7 mmHg; greatest reduction in systolic blood pressure [8]: 23.6 mmHg
2 | O=C(O[C@H]1[C@@H]2OC(=O)c3cc(O)c(O)c(O)c3-c3c(cc(O)c(O)c3O)C(=O)OC[C@H]2OC(O)[C@@H]1OC(=O)c1cc(O)c(O)c(O)c1)c1cc(O)c(O)c(O)c1 (stereo partly drawn) [tellimagrandin I] | – | – | – | – | 18.4 | –
3 | O=C(OC1O[C@@H]2COC(=O)c3cc(O)c(O)c(O)c3-c3c(cc(O)c(O)c3O)C(=O)O[C@H]2[C@H](OC(=O)c2cc(O)c(O)c(O)c2)[C@H]1OC(=O)c1cc(O)c(O)c(O)c1)c1cc(O)c(O)c(O)c1 (stereo partly drawn) [tellimagrandin II] | – | – | – | – | 18.6 | –
4 | COc1cc(/C=C/C(=O)CC(=O)/C=C/c2ccc(O)c(O)c2)ccc1O [demethylcurcumin] | – | – | – | – | – | IC50 (AChE [10]): 66.9 µM
5 | Oc1ccc([C@H]2c3c(O)cc(O)cc3[C@H]3c4c(cc(O)cc4[C@@H]2[C@H]2c4cc(O)cc5c4[C@H](c4cc(O)cc(O)c4[C@@H]2c2ccc(O)cc2)[C@@H](c2ccc(O)cc2)O5)O[C@@H]3c2ccc(O)cc2)cc1 [hopeaphenol, (+)-hopeaphenol] | – | 8.06 | no significant difference | 88.2 | – | –
6 | O=C(OC[C@H]1O[C@@H](OC(=O)c2cc(O)c(O)c(O)c2)[C@H](OC(=O)c2cc(O)c(O)c(O)c2)[C@@H](OC(=O)c2cc(O)c(O)c(O)c2)[C@@H]1O)c1cc(O)c(O)c(O)c1 [1,2,3,6-tetra-O-galloyl-β-D-glucopyranoside] | – | – | – | – | 84.2 | –
7 | COc1cc2c(cc1OC)C(=O)C(CC1CCN(Cc3ccccc3)CC1)C2 (stereo not drawn) [donepezil, reference compound] | significant longer time | – | – | – | – | step-through latency in the retention trial compared to the control ([2]; extract study: VT-95EE or VT-95EE-EA 200 and 400 mg/kg oral daily day 1-15, donepezil 5 mg/kg day 12-15): significant longer time
8 | Oc1ccc(/C=C/c2cc(O)cc(O)c2)cc1 [resveratrol, reference compound] | – | – | no significant difference | 41.3 | – | –
9 | Oc1ccc([C@H]2Oc3cc(O)cc(/C=C/c4ccc5c(c4)[C@@H](c4cc(O)cc6c4[C@H](c4cc(O)cc(O)c4)[C@@H](c4ccc(O)cc4)O6)[C@H](c4ccc(O)cc4)O5)c3[C@@H]2c2cc(O)cc(O)c2)cc1 [vitisin B, (−)-vitisin B] | no significant difference | 1.33 | – | 1.08 | – | AChE activity in brain tissue extracts compared to the control (AChE [1]): lower increased AChE activities; BDNF protein expression in brain tissue extracts [3]: recover the reduced BDNF protein expressions; MDA levels in brain tissue extracts compared to the control [4]: no effect on reduction of MDA level; MGO-treated cell viability compared to the control (SH-SY5Y cells; pretreatment 5, 10, and 20 μM for 24 h): significantly to elevate MGO-treated cell viability
